Measurements as given in patent US20190225650A1, “PEPTIDOMIMETIC MACROCYCLES AND USE THEREOF IN REGULATING HIF1ALPHA” (AILERON THERAPEUTICS, INC., priority 2013, published 2019).
Bridge positions count the residues as written; N and C are the ends. Square brackets hold non-standard residues; d marks the D form. Peptide text beside a SMILES is read from it. R8 = C=CCCCCCC[C@@](C)(N)C(=O)O; S5 = C=CCCC[C@](C)(N)C(=O)O; Nle = CCCC[C@H](N)C(=O)O

Key:
HRE-bla ME-180 cells [1] = assay: Reporter gene assay (HRE-bla ME-180 HIF reporter, GeneBLAzer); format: cell-based, human; conditions: for EC50: 24 hour normoxia
How it was run: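 A FRET β-lactamase readout of HIF transcription was used. After compound treatment in 0.3% DMSO/media under normoxic conditions, 20 μl of 6× LiveBLAzer-FRET B/G (CCF4-AM) substrate was added. Plates sat 3 hr at room temperature in the dark and were read at 409 Ex/460Em and 409Ex/530Em on a Synergy 2. Inhibition was compared against DMSO vehicle controls, with chetomin as positive control.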

HRE-bla ME-180 cells [2] = assay: Cell proliferation assay (viability, MTT, 1% FBS); format: cell-based, human
How it was run: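 ME-180 cells (2×10^4/well) in Opti-MEM with 1% FBS were pretreated 16 h under normoxia (21% O2), vehicle 0.5% DMSO final. Incubation then continued under normoxia or hypoxia (1% O2); viable cells quantified by MTT-type CellTiter 96 assay.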

[3] = biological target: T1, flag-tagged HIF1α (AA 786-826) / His6-tagged p300 (AA 323-423) complex (Homo sapiens, UniProt Q09472); assay: HIF1α p300 displacement assay (TR FRET, +CHAPS); format: binding; conditions: read-out: IC50 (nM) (HIF1α_p300 Displacement + CHAPS)
T1 construct: His6-tagged p300 (AA 323-423); made in house; host or cells: E. coli (pETDuet vector)
How it was run: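 The co-expressed flag-HIF1α (786-826)/His6-p300 (323-423) complex, purified from E. coli with 0.1 mM ZnSO4, was used at 300 nM final with competitor peptides for 1 h at room temperature. Buffer was 150 mM NaCl, 20 mM HEPES pH 7.4, 7.5 mM CHAPS and 1 mM DTT. Anti-Flag-K (0.5 μM) and anti-His-D2 (4 nM) were then added for 2 h, and IC50s were fitted from the TR-FRET ratio.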

| SMILES | 18 h Avg % max inhibition at top conc (HIF Rptr-24 hrs normoxia) (μM) (HRE-bla ME-180 cells [1]) | EC50 (HRE-bla ME-180 cells [1]) [µM] | Viability 1% FBS AVG (MTT V3-24 hr Normoxia) (μM) (HRE-bla ME-180 cells [2]) | IC50 [3] [nM] |
| --- | --- | --- | --- | --- |
| CCCC[C@H](NC(=O)[C@H](CCC(=O)O)NC(=O)[C@@H](NC(=O)[C@@H](NC(=O)[C@H](CC(C)C)NC(=O)[C@]1(C)CCCC=CCCC[C@](C)(NC(=O)[C@H](CCC(=O)O)NC(=O)[C@H](CC(=O)O)NC(=O)[C@H](CO)NC(=O)[C@H](Cc2ccccc2)NC(C)=O)C(=O)N[C@@H](C(C)C)C(=O)N[C@@H](CC(C)C)C(=O)N[C@@H](CCCC)C(=O)N1)C(C)C)[C@@H](C)CC)C(=O)N[C@@H](C)C(=O)N[C@@H](CC(C)C)C(N)=O [SP-154] (Ac-FSDE[S5]VL[Nle][S5]LVIE[Nle]AL-NH2; staple 5-9) | + (<10: +) | > 30 | ++++ (≥30: ++++) | 200 to 400 |
| CCCC[C@H](NC(=O)[C@H](C)NC(=O)[C@H](CCSC)NC(=O)[C@]1(C)CCCC=CCCC[C@](C)(NC(=O)[C@H](CCSC)NC(=O)[C@H](CC(C)C)NC(=O)[C@@H](NC(=O)[C@H](CCC(=O)O)NC(=O)[C@H](CCC(=O)O)NC(=O)[C@H](CC(=O)O)NC(=O)[C@@H](NC(=O)[C@H](Cc2ccccc2)NC(C)=O)[C@@H](C)CC)C(C)C)C(=O)N[C@@H](CC(C)C)C(=O)N[C@@H](C(C)C)C(=O)N[C@@H]([C@@H](C)CC)C(=O)N1)C(N)=O [SP-227] (Ac-FIDEEVLM[S5]LVI[S5]MA[Nle]-NH2; staple 9-13) | ++ (≤10 but <25: ++) | > 30 | ++++ (≥30: ++++) | > 700 |
| CCCC[C@H](NC(=O)[C@]1(C)CCCC=CCCC[C@](C)(NC(=O)[C@H](CCCC)NC(=O)[C@H](CC(C)C)NC(=O)[C@@H](NC(=O)[C@H](CCC(=O)O)NC(=O)[C@H](C)NC(=O)[C@H](CC(=O)O)NC(=O)[C@@H](NC(=O)[C@H](CC(N)=O)NC(=O)[C@@H](NC(=O)[C@]2(C)CCCC=CCCCCCC[C@@](C)(NC(=O)[C@H](CCC(=O)O)NC(=O)CNC(=O)[C@H](CCC(N)=O)NC(=O)[C@H](CC(C)C)NC(=O)[C@H](CC(C)C)NC(C)=O)C(=O)N[C@@H](CC(C)C)C(=O)N[C@@H](CC(C)C)C(=O)N[C@@H](CCCNC(=N)N)C(=O)N[C@@H](C)C(=O)N[C@@H](CC(C)C)C(=O)N[C@@H](CC(=O)O)C(=O)N2)C(C)C)[C@@H](C)CC)C(C)C)C(=O)N[C@@H](CC(C)C)C(=O)N[C@@H](C(C)C)C(=O)N[C@@H]([C@@H](C)CC)C(=O)N1)C(N)=O [SP-346] (Ac-LLQGE[R8]LLRALD[S5]VNIDAEVL[Nle][S5]LVI[S5][Nle]-NH2; staple 6-13, 23-27) | ++ (≤10 but <25: ++) | > 30 | ++++ (≥30: ++++) | ≤ 200 |
| CCCC[C@H](NC(=O)[C@]1(C)CCCC=CCCC[C@](C)(NC(=O)[C@H](CCCC)NC(=O)[C@H](CC(C)C)NC(=O)[C@@H](NC(=O)[C@H](CCC(=O)O)NC(=O)[C@H](CCC(=O)O)NC(=O)[C@H](C)NC(=O)[C@@H](NC(=O)[C@H](CC(N)=O)NC(=O)[C@@H](NC(=O)[C@]2(C)CCCC=CCCCCCC[C@@](C)(NC(=O)[C@H](CCC(=O)O)NC(=O)CNC(=O)[C@H](CCC(N)=O)NC(=O)[C@H](CC(C)C)NC(=O)[C@H](CC(C)C)NC(C)=O)C(=O)N[C@@H](CC(C)C)C(=O)N[C@@H](CC(C)C)C(=O)N[C@@H](CCCNC(=N)N)C(=O)N[C@@H](C)C(=O)N[C@@H](CC(C)C)C(=O)N[C@@H](CC(=O)O)C(=O)N2)C(C)C)[C@@H](C)CC)C(C)C)C(=O)N[C@@H](CC(C)C)C(=O)N[C@@H](C(C)C)C(=O)N[C@@H]([C@@H](C)CC)C(=O)N1)C(N)=O [SP-349] (Ac-LLQGE[R8]LLRALD[S5]VNIAEEVL[Nle][S5]LVI[S5][Nle]-NH2; staple 6-13, 23-27) | +++ (≤25 but <50: +++) | > 30 | ++++ (≥30: ++++) | ≤ 200 |
| CCCC[C@H](NC(=O)[C@H](CC(C)C)NC(=O)[C@@H](NC(=O)[C@H](CCC(=O)O)NC(=O)[C@H](CCC(=O)O)NC(=O)[C@H](CC(=O)O)NC(=O)[C@@H](NC(=O)[C@H](CC(N)=O)NC(=O)[C@@H](NC(=O)[C@]1(C)CCCC=CCCCCCC[C@@](C)(NC(=O)[C@H](CCC(=O)O)NC(=O)CNC(=O)[C@H](CCC(N)=O)NC(=O)[C@H](CC(C)C)NC(=O)[C@H](CC(C)C)NC(C)=O)C(=O)N[C@@H](CC(C)C)C(=O)N[C@@H](CC(C)C)C(=O)N[C@@H](CCCNC(=N)N)C(=O)N[C@@H](C)C(=O)N[C@@H](CC(C)C)C(=O)N[C@@H](CC(=O)O)C(=O)N1)C(C)C)[C@@H](C)CC)C(C)C)C(=O)N[C@@]1(C)CCCC=CCCC[C@@](C)(C(=O)N[C@@H](CCCC)C(=O)NCC(N)=O)NC(=O)[C@H]([C@@H](C)CC)NC(=O)[C@H](C(C)C)NC(=O)[C@H](CC(C)C)NC1=O [SP-309] (Ac-LLQGE[R8]LLRALD[S5]VNIDEEVL[Nle][S5]LVI[S5][Nle]G-NH2; staple 6-13, 23-27) | + (<10: +) | > 30 | ++++ (≥30: ++++) | 200 to 400 |
| CCCC[C@H](NC(=O)[C@H](Cc1ccccc1)NC(=O)[C@@H](NC(=O)[C@H](C)NC(=O)[C@H](CCC(N)=O)NC(=O)[C@H](CC(=O)O)NC(=O)[C@@H](NC(=O)[C@H](Cc1ccccc1)NC(C)=O)[C@@H](C)CC)C(C)C)C(=O)N[C@@]1(C)CCCC=CCCC[C@@](C)(C(=O)N[C@@H](CCCNC(=N)N)C(=O)N[C@@H](C)C(=O)N[C@@H](CC(C)C)C(=O)N[C@@H](CC(C)C)C(N)=O)NC(=O)[C@H]([C@@H](C)CC)NC(=O)[C@H](C(C)C)NC(=O)[C@H](CC(C)C)NC1=O [SP-256] (Ac-FIDQAVF[Nle][S5]LVI[S5]RALL-NH2; staple 9-13) | ++++ (≥50: ++++) | ≤ 5 | ++ (≤5 but <15: ++) | > 700 |
| CCCC[C@@H]1NC(=O)[C@H](CC(C)C)NC(=O)[C@](C)(NC(=O)[C@H](CCC(=O)O)NC(=O)[C@H](CCC(=O)O)NC(=O)[C@H](CC(=O)O)NC(=O)[C@@H](NC(=O)[C@H](CC(N)=O)NC(=O)[C@@H](NC(=O)[C@]2(C)CCCC=CCCCCCC[C@@](C)(NC(=O)[C@H](CCC(=O)O)NC(=O)CNC(=O)[C@H](CCC(N)=O)NC(=O)[C@H](CC(C)C)NC(=O)[C@H](CC(C)C)NC(C)=O)C(=O)N[C@@H](CC(C)C)C(=O)N[C@@H](CC(C)C)C(=O)N[C@@H](CCCNC(=N)N)C(=O)N[C@@H](C)C(=O)N[C@@H](CC(C)C)C(=O)N[C@@H](CC(=O)O)C(=O)N2)C(C)C)[C@@H](C)CC)CCCCCCC=CCCC[C@@](C)(C(=O)N[C@@H](CCCC)C(=O)NCC(N)=O)NC(=O)[C@H]([C@@H](C)CC)NC(=O)[C@H](C(C)C)NC(=O)[C@H](CC(C)C)NC(=O)[C@H](CO)NC1=O [SP-332] (Ac-LLQGE[R8]LLRALD[S5]VNIDEE[R8]L[Nle]SLVI[S5][Nle]G-NH2; staple 6-13, 20-27) | + (<10: +) | > 30 | ++++ (≥30: ++++) | ≤ 200 |
